Assay [1] relates to L-1210 lymphoid leukemia. As to the kind of experiment: Cytotoxic assay, L-1210 lymphoid leukemia cell line. It is filed as cell-based. Particulars: dosage required to kill 50 percent of the tumor cells in cell culture.
Source text: (§2) Boron dipeptide analogs were investigated for potential antineoplastic activity in the Ehrlich ascites carcinoma in vivo screen in CF-1 mice and in cytotoxic assays involving the L-1210 lymphoid leukemia and P-388 lymphocytic leukemia cell lines. The ED50 is the effective dosage required to kill 50 percent of the tumor cells in the leukemia cell culture.
Assay [2] relates to P-388 lymphocytic leukemia. The assay can be described thus: Cytotoxic assay, P-388 lymphocytic leukemia cell line. It is filed as cell-based. Particulars: dosage required to kill 50 percent of the tumor cells in cell culture.
Source text: as §2
In assay [3] the test system is Ehrlich ascites carcinoma. As to the kind of experiment: Ehrlich ascites carcinoma in vivo screen. Conditions: CF-1 mice. On the set-up: concentration or dose not given beside the values.
Assay [4] relates to serum cholesterol levels. As to the kind of experiment: Antihyperlipidemic screen, serum cholesterol. Conditions: male CF1 mice. It is filed as in vivo. The protocol:
(§1) Compounds to be tested were suspended in 1% aqueous carboxymethylcellulose and administered to male CF1 mice (25 g) intraperitoneally for 16d. On days 9 and 16, blood was obtained by tail vein bleeding, and the serum was separated by centrifugation for three minutes. The serum cholesterol levels were determined by a modification of the Liebermann-Burchard reaction [A. T. Ness, J. V. Pastewka, and A. C. Peacock, Clin. Chim. Acta, 10, 229 (1964)]. Serum triglyceride levels were determined with a commercial kit [Fisher, Hycel Triglyceride Test Kit] for a different group of animal bled on day 16.

Assay [5] relates to Serum triglyceride levels. The assay can be described thus: Antihyperlipidemic screen, serum triglyceride. Conditions: male CF1 mice. It is filed as in vivo. As to the method: as §1

The values that follow come from patent publication US4977268A, “Boron dipeptide compounds” (priority 1988, dated 1990).

Converted amounts (≈) assume the structure as drawn.

In the case of `O=c1[nH]cc(F)c(=O)[nH]1` [5-Fluorouracil, reference compound], the “ED50 Cytotoxicity L-1210 Lymphoid Leukemia” value in assay [1] came to 1.94 µg/mL (≈ 14.9 µM). For the same compound, in assay [2], the “ED50 Cytotoxicity P-388 Lymphocytic Leukemia” value came out at 3.72 µg/mL (≈ 28.6 µM).
Regarding `Sc1ncnc2nc[nH]c12` [6-Mercaptopurine, reference compound], the “In Vivo % Inhibition of Ehrlich Ascites Carcinoma Growth” value (“In Vivo % Inhibition” below) in assay [3] was 99.6%. In addition, the “ED50 Cytotoxicity L-1210 Lymphoid Leukemia” value in assay [1] was found to be 2.43 µg/mL (≈ 16 µM). For the same compound, in assay [2], the “ED50 Cytotoxicity P-388 Lymphocytic Leukemia” value was determined as 4.10 µg/mL (≈ 26.9 µM).
On to `Nc1ccn([C@@H]2O[C@H](CO)[C@@H](O)[C@@H]2O)c(=O)n1` [Ara C, reference compound], for which the “ED50 Cytotoxicity L-1210 Lymphoid Leukemia” value in assay [1] was determined as 2.76 µg/mL (≈ 11.3 µM). The “ED50 Cytotoxicity P-388 Lymphocytic Leukemia” value in assay [2] was determined as 4.06 µg/mL (≈ 16.7 µM).
With `NC(=O)CNC(=O)[BH2-][NH3+]` [Compound 1, N-[(ammonia-boryl)carbonyl]glycine amide], in assay [4] (8 mg/kg intraperitoneally), the “% Inhibition Serum Cholesterol Day 9” value amounted to 21% and the “% Inhibition Serum Cholesterol Day 16” value is given as 42%. The “% Inhibition Serum Triglyceride Day 16” value in assay [5] (8 mg/kg intraperitoneally) is reported as 53%. Also, the “In Vivo % Inhibition” value in assay [3] came out at 67%. Moreover, in assay [1], the “ED50 Cytotoxicity L-1210 Lymphoid Leukemia” value was found to be 1.40 µg/mL (≈ 10.7 µM). In assay [2], the “ED50 Cytotoxicity P-388 Lymphocytic Leukemia” value came out at 7.62 µg/mL (≈ 58.2 µM).
With `NC(=O)C(CO)NC(=O)[BH2-][NH3+]` (stereo not drawn) [Compound 2, N-[(Ammoniaboryl)carbonyl]serine amide], in assay [3], the “In Vivo % Inhibition” value came out at 52%. The “ED50 Cytotoxicity L-1210 Lymphoid Leukemia” value in assay [1] was determined as 10.6 µg/mL (≈ 65.9 µM). Moreover, the “ED50 Cytotoxicity P-388 Lymphocytic Leukemia” value in assay [2] amounted to 8.73 µg/mL (≈ 54.2 µM).
In the case of `CSCCC(NC(=O)[BH2-][NH3+])C(N)=O` (stereo not drawn) [Compound 3, N-[(Ammonia-boryl)carbonyl] methionine amide], the “In Vivo % Inhibition” value in assay [3] is reported as 75%. Further, the “ED50 Cytotoxicity L-1210 Lymphoid Leukemia” value in assay [1] was 4.17 µg/mL (≈ 20.3 µM). Also, the “ED50 Cytotoxicity P-388 Lymphocytic Leukemia” value in assay [2] was determined as 8.57 µg/mL (≈ 41.8 µM).
As for `COC(=O)CNC(=O)[BH2-][N+](C)(C)C` [Compound 7, N-[(Trimethylamine-boryl)carbonyl]glycine methyl ester], the “% Inhibition Serum Cholesterol Day 9” value turned out to be 21% in assay [4] (8 mg/kg intraperitoneally) and 31% in assay [4] (20 mg/kg intraperitoneally). Besides, the entries for the “% Inhibition Serum Cholesterol Day 16” value in assay [4] (8 mg/kg intraperitoneally) and in assay [4] (20 mg/kg intraperitoneally) were 42% and 52%, respectively. The figures for the “% Inhibition Serum Triglyceride Day 16” value in assay [5] (8 mg/kg intraperitoneally) and in assay [5] (20 mg/kg intraperitoneally) were 59% and 30%, respectively. Also, in assay [3], the “In Vivo % Inhibition” value came out at 89%. In addition, the “ED50 Cytotoxicity L-1210 Lymphoid Leukemia” value in assay [1] came out at 7.00 µg/mL (≈ 37.2 µM). In assay [2], the “ED50 Cytotoxicity P-388 Lymphocytic Leukemia” value is 12.11 µg/mL (≈ 64.4 µM).
`COC(=O)[C@H](CO)NC(=O)[BH2-][N+](C)(C)C` [Compound 8, N-[(Trimethylamine-boryl)carbonyl]-L-serine methyl ester]: in assay [3], the “In Vivo % Inhibition” value was 61%. Moreover, the “ED50 Cytotoxicity L-1210 Lymphoid Leukemia” value in assay [1] was found to be 1.98 µg/mL (≈ 9.08 µM). In assay [2], the “ED50 Cytotoxicity P-388 Lymphocytic Leukemia” value came out at 9.21 µg/mL (≈ 42.2 µM).
In the case of `COC(=O)[C@H](CCSC)NC(=O)[BH2-][N+](C)(C)C` [Compound 9, N-[(Trimethylamine-boryl)carbonyl]-L-methionine methyl ester], in assay [4] (20 mg/kg intraperitoneally), the “% Inhibition Serum Cholesterol Day 9” value is given as 55% and the “% Inhibition Serum Cholesterol Day 16” value was found to be 55%. Moreover, in assay [5] (20 mg/kg intraperitoneally), the “% Inhibition Serum Triglyceride Day 16” value came to 23%. The “In Vivo % Inhibition” value in assay [3] is 41%. In addition, the “ED50 Cytotoxicity L-1210 Lymphoid Leukemia” value in assay [1] was determined as 6.62 µg/mL (≈ 25.2 µM). The “ED50 Cytotoxicity P-388 Lymphocytic Leukemia” value in assay [2] came to 12.86 µg/mL (≈ 49 µM).
For the compound `COC(=O)[C@H](Cc1ccccc1)NC(=O)[BH2-][N+](C)(C)C` [Compound 13, N-[(Trimethylamine-boryl)carbonyl]-L-phenylalanine methyl ester], in assay [4] (20 mg/kg intraperitoneally), the “% Inhibition Serum Cholesterol Day 9” value is reported as 25% and the “% Inhibition Serum Cholesterol Day 16” value is reported as 48%. For the same compound, the “% Inhibition Serum Triglyceride Day 16” value in assay [5] (20 mg/kg intraperitoneally) amounted to 33%. The “In Vivo % Inhibition” value in assay [3] is 94%. The “ED50 Cytotoxicity L-1210 Lymphoid Leukemia” value in assay [1] is 10.84 µg/mL (≈ 39 µM). In assay [2], the “ED50 Cytotoxicity P-388 Lymphocytic Leukemia” value worked out at 8.89 µg/mL (≈ 32 µM).
For `COC(=O)[C@H](C)NC(=O)[BH2-][N+](C)(C)C` [Compound 16, N-[(Trimethylamine-boryl)carbonyl]-L-alanine methyl ester], in assay [3], the “In Vivo % Inhibition” value is given as 83%.
On the same count and under the same terms, as for `N[C@@H](Cc1ccc(N(CCCl)CCCl)cc1)C(=O)O` [Melphalan, reference compound], the figure is 99%.
